Here are results for one substance from patent US9193733B2, “Piperidinylcyclobutyl substituted pyrrolopyridine and pyrrolopyrimidine derivatives as JAK inhibitors” (Incyte Corporation, priority 2012, dated 2015).

A word on the IC50: it is the concentration that gives 50% inhibition. A lower IC50 goes with higher potency.

Format in all cases: biochemical
Experiment [1] has as its target T1, human JAK1 (a.a. 837-1142) catalytic domain (Homo sapiens, UniProt P23458).
T1 construct: human JAK1 (a.a. 837-1142) and JAK2 (a.a. 828-1132); His tag (N); made in house; host or cells: insect cells (baculovirus)
Description: In vitro JAK kinase assay (HTRF, phosphorylation of a biotinylated peptide), JAK1. As to conditions: 1 mM ATP. An outline of the steps:
(§1)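 His-tagged JAK1/JAK2 catalytic domains from baculovirus-infected insect cells phosphorylate 500 nM biotinylated peptide at 1 mM ATP in 50 mM Tris pH 7.8, 100 mM NaCl, 5 mM DTT, 0.01% BSA, 1 h at room temperature. EDTA-stopped; SA-APC/Eu-Py20 HTRF read after 40 min; IC50 determined.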

For experiment [2], the system named is human JAK1 (a.a. 837-1142) catalytic domain. The experiment is described as above. As to conditions: ratio of JAK2 IC50 to JAK1 IC50, 1 mM ATP. An outline of the steps:
as §1

For experiment [3], the target named is T2, human JAK2 (a.a. 828-1132) catalytic domain (Homo sapiens, UniProt O60674).
T2 construct: human JAK1 (a.a. 837-1142) and JAK2 (a.a. 828-1132); His tag (N); made in house; host or cells: insect cells (baculovirus)
T2 sequence (O60674 828-1132): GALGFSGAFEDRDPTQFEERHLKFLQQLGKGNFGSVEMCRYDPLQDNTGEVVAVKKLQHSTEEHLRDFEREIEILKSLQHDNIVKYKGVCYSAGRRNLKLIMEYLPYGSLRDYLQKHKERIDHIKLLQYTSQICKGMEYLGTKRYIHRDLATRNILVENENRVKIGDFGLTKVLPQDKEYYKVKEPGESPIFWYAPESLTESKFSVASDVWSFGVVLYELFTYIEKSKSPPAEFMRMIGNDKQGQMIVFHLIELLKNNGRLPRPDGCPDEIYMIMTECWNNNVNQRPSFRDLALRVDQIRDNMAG
The experiment is described as follows: In vitro JAK kinase assay (HTRF, phosphorylation of a biotinylated peptide), JAK2. As to conditions: 1 mM ATP. The method, boiled down:
as §1

T1 sequence (P23458 849-1154): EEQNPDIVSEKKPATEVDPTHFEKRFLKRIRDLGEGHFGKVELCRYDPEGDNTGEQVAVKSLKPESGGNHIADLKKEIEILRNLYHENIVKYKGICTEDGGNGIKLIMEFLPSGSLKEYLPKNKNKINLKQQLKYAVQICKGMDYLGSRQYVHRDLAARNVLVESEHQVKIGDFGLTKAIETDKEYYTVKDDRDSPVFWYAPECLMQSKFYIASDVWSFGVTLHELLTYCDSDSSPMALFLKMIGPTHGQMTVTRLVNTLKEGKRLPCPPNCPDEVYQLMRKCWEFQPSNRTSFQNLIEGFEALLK

For “{cis-3-(4-{[4-(2-hydroxyethyl)-6-(trifluoromethyl)pyridin-2-yl]amino}piperidin-1-yl)-1-[4-(7H-pyrrolo[2,3-d]pyrimidin-4-yl)-1H-pyrazol-1-yl]cyclobutyl}acetonitrile and {trans-3-(4-{[4-(2-hydroxyethyl)-6-(trifluoromethyl)pyridin-2-yl]amino}piperidin-1-yl)-1-[4-(7H-pyrrolo[2,3-d]pyrimidin-4-yl)-1H-pyrazol-1-yl]cyclobutyl}acetonitrile [Example 38]”, the figures for the IC50 in experiment [1] and in experiment [3] were below 20 nM and 20 to 150 nM, respectively. Moreover, the JAK2/JAK1 in experiment [2] is above 10.
